Test results from patent US20210369662A1, “FAT ACCUMULATION INHIBITOR AND BLOOD LIPID LEVEL IMPROVING AGENT” (ASAHI GROUP HOLDINGS, LTD., priority 2018, published 2021).

Columns and labels:
[1] = tested on: C57BL/6N male mice on high-fat diet; assay: Fat accumulation in high-fat diet mice (CT scan and adipose tissue weight); format: in vivo; conditions: 15 weeks
Experimental: (§1) The animal experiment was approved by the Animal Experiment Committee of Asahi Group Holdings, Ltd. (Mar. 9, 2017), and was conducted in accordance with the guidelines for the management and use of laboratory animals of the company's R&D center (implementation period: Apr. 3, 2017 to Jan. 10, 2018). Four-week-old C57BL/6N male mice (Japan SLC, Inc.) were purchased and used for the experiment. The mice were raised in the following environment: room temperature: 23±1.5° C., humidity: 55±15%, lighting time: 8:00 to 20:00.
(§2) High-fat diet containing 45 kcal % fat (Research Diets, Inc., D12451) was used to prepare feed with or without 0.1% 10-HOA. The four-week-old mice were acclimated to the high-fat diet for 2 weeks, then divided into two groups: (1) high-fat diet control group and (2) 0.1% 10-HOA-containing high-fat diet group, with 10 mice per group, and were administered the diet for 15 weeks. Feed and drinking water (tap water) were given freely by individual housing.
(§3) After fasting for 16 hours from the day before dissection, the amount of abdominal visceral fat, subcutaneous fat, and total fat (sum of the amount of visceral fat and subcutaneous fat) were measured by a CT scanner (Latheta LCT-100; Hitachi Aloka Medical, Ltd.), under anesthesia by isoflurane inhalation. Then, the abdomen was opened under anesthesia, and blood was collected from the abdominal vena cava. Visceral fat (perirenal fat, and retroperitoneal fat) and jejunal epithelial tissue were collected to measure the weight of adipose tissue. The above test was repeated three times, and an analysis was performed by a two-way analysis of variance (factor 1: test group, factor 2: number of animal experiments) (n=10×3/group).

[2] = tested on: C57BL/6N male mice on high-fat diet; assay: Plasma lipids and apolipoprotein A-I in high-fat diet mice; format: in vivo; conditions: 0.1% 10-HOA in high-fat diet, 15 weeks
Experimental: as §1, §2, §3
The triglyceride concentration in the plasma was measured using a Triglyceride E test. The amount of cholesterol in the plasma was measured using a conventional method (G. Toshima et al., LipoSEARCH (registered trademark); Analytical GP-HPLC method for lipoprotein profiling and its applications, J. Biol. Macromol., 13 (2), 21-32 (2013)) at Skylight Biotech Inc,. Mouse Apolipoprotein A-I ELISAPRO kit (MABTECH) was used for the measurement of apolipoprotein A-I in the plasma. The jejunal epithelial tissue was collected by QIAzol Lysis Reagent (QIAGEN), and total RNA was extracted according to the product protocol of RNeasy Mini Kit (QIAGEN). Total RNA was reverse transcribed by M-MLV Reverse Transcriptase (Life Technologies Japan Ltd.) to prepare cDNA. To measure the mRNA expression level, real-time PCR by the intercalator method was performed using Light Cycler System (Roche Diagnostics K.K.). […] The mRNA expression level was expressed as a relative value to the control group.

[3] = tested on: cholesterol transporter (NPC1L1); assay: Gene expression level of cholesterol transporter in jejunal epithelial tissue (real-time PCR); format: in vivo, mice; conditions: 0.1% 10-HOA in high-fat diet, 15 weeks, mRNA relative to control group, internal standard 36b4 (FIG. 8)
Experimental: as §1
High-fat diet containing 45 kcal % fat (Research Diets, Inc., D12451) was used to prepare feed with or without 0.1% 10-HOA. […]
After fasting for 16 hours from the day before dissection, the amount of abdominal visceral fat, subcutaneous fat, and total fat (sum of the amount of visceral fat and subcutaneous fat) were measured by a CT scanner (Latheta LCT-100; Hitachi Aloka Medical, Ltd.), under anesthesia by isoflurane inhalation. […]
The triglyceride concentration in the plasma was measured using a Triglyceride E test. The amount of cholesterol in the plasma was measured using a conventional method (G. Toshima et al., LipoSEARCH (registered trademark); Analytical GP-HPLC method for lipoprotein profiling and its applications, J. Biol. Macromol., 13 (2), 21-32 (2013)) at Skylight Biotech Inc,. […] The mRNA expression level was expressed as a relative value to the control group.

[4] = 0.1% 10-HOA in high-fat diet (45 kcal % fat), adipose tissue weight, n=10x3/group

CCCCCCCCC(O)CCCCCCCCC(=O)O (stereo not shown) [10-HOA, 10-hydroxyoctadecanoic acid]
Fat on the posterior abdominal wall [1, 4]: 0.6805 ± 0.0206 g | Perirenal fat [1, 4]: 0.4924 ± 0.0130 g | weights of perirenal fat and retroperitoneal fat ([1]; 0.1% 10-HOA in high-fat diet, compared to control (Table 1)): reduced | amount of abdominal visceral fat ([1]; CT scanner, 0.1% 10-HOA in high-fat diet, compared to control group (FIG. 1)): significantly reduced | total amount of fat ([1]; CT scanner, sum of visceral and subcutaneous fat, 0.1% 10-HOA in high-fat diet, compared to control (FIG. 3)): decreasing tendency | triglyceride concentration in plasma ([2]; 16 h fasting, compared to control (FIG. 4)): decreasing tendency | Apolipoprotein A-I in plasma ([2]; ELISA, compared to control (FIG. 6)): increasing tendency | small HDL cholesterol in plasma ([2]; compared to control (FIG. 5)): significantly increased | chylomicron cholesterol in plasma ([2]; compared to control (FIG. 7)): significant decrease | gene expression level of the cholesterol transporter (NPC1L1) in jejunal epithelial tissue [3]: decrease
